system: primary cultured guinea-pig urinary bladder (GPB) cells; experiment: Membrane hyperpolarization (MHP) assay, DiBAC(4)3 / FLIPR; format: cell-based; conditions: Cavia porcellus, concentration that elicits 50% of the maximal response for the test sample
Summary of the method: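 Primary smooth-muscle cells from male guinea-pig bladder, grown to confluence, loaded 30 min at 37° C with 5 μM DiBAC(4)3 in HEPES buffer pH 7.4. Fluorescence drop on FLIPR followed 25 min after compound; steady-state hyperpolarization normalized to 10 μM P1075 (100%), EC50 from four-parameter fit of five concentrations.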

SMILES | EC50 [nM]
CN(C)CC(C)(C)C(NC(=O)c1ccc(Cl)cc1)NC(=NC#N)Nc1cccnc1 (stereo not drawn) [Example 97, 4-chloro-N-[1-{[(cyanoimino)(3-pyridinylamino)methyl]amino}-3-(dimethylamino)-2,2-dimethylpropyl]benzamide] | 1600

same assay, conditions: Cavia porcellus, maximal steady-state hyperpolarization, normalized to response with 10 μM P1075 (100%)

SMILES | Emax [%]
CN(C)CC(C)(C)C(NC(=O)c1ccc(Cl)cc1)NC(=NC#N)Nc1cccnc1 (stereo not drawn) [Example 97, 4-chloro-N-[1-{[(cyanoimino)(3-pyridinylamino)methyl]amino}-3-(dimethylamino)-2,2-dimethylpropyl]benzamide] | 74

system: not given; experiment: not given; conditions: not given

SMILES | melting point [°C]
CN(C)CC(C)(C)C(NC(=O)c1ccc(Cl)cc1)NC(=NC#N)Nc1cccnc1 (stereo not drawn) [Example 97, 4-chloro-N-[1-{[(cyanoimino)(3-pyridinylamino)methyl]amino}-3-(dimethylamino)-2,2-dimethylpropyl]benzamide] | 101 to 103
COc1cccc(NC(=NC#N)NC(NC(=O)c2ccc(Cl)cc2)C(C)(C)C)c1 (stereo not drawn) [Example 76, 4-chloro-N-(1-{[(cyanoimino)(3-methoxyanilino)methyl]amino}-2,2-dimethylpropyl)benzamide] | 173 to 175
CC(C)(C)C(NC(=O)c1ccc(Cl)cc1)NC(=NC#N)Nc1cc(F)ccc1F (stereo not drawn) [Example 73, 4-chloro-N-(1-{[(cyanoimino)(2,5-difluoroanilino)methyl]amino}-2,2-dimethylpropyl)benzamide] | 196 to 198
CC(C)(C)C(NC(=O)Nc1ccccc1F)NC(=O)c1ccc(Cl)cc1 (stereo not drawn) [Example 147, 4-chloro-N-(1-{[(2-fluoroanilino)carbonyl]amino}-2,2-dimethylpropyl)benzamide] | 229 to 230
CC(C)(C)C(NC(=O)c1ccc(Cl)cc1)NC(Nc1cccnc1)=C(C#N)C#N (stereo not drawn) [Example 152, 4-chloro-N-(1-{[2,2-dicyano-1-(3-pyridinylamino)vinyl]amino}-2,2-dimethylpropyl)benzamide] | 213 to 214
CC(C)(C)C(NC(=O)c1ccc(Cl)cc1)NC(=NC#N)NCc1cccnc1 (stereo not drawn) [Example 80, 4-chloro-N-[1-({(cyanoimino)[(3-pyridinylmethyl)amino]methyl}amino)-2,2-dimethylpropyl]benzamide] | 188 to 189
CN(C(=NC#N)Nc1cccnc1)C(NC(=O)c1ccc(Cl)cc1)C(C)(C)C (stereo not drawn) [Example 111, 4-chloro-N-{1-[[(cyanoimino)(3-pyridinylamino)methyl](methyl)amino]-2,2-dimethylpropyl}benzamide] | 127 to 129
Cc1ccc(C(=O)N[C@@H](COC(C)(C)C)NC(=S)Nc2cccc([N+](=O)[O-])c2)cc1 [Example 31, N-((1R)-2-(tert-butoxy)-1-{[(3-nitroanilino)carbothioyl]amino}ethyl)-4-methylbenzamide] | 169 to 171
COc1cc(OC)cc(C(=O)NC(NC(=NC#N)Nc2ccc(C(F)(F)F)nc2)C(C)(Cl)Cl)c1 (stereo not drawn) [Example 183, N-{2,2-dichloro-1-[((cyanoimino){[6-(trifluoromethyl)-3-pyridinyl]amino}methyl)amino]propyl}-3,5-dimethoxybenzamide] | 187 to 189
Cc1ccc(C(=O)NC(NC(=NC#N)Nc2cccc(F)c2)C(C)(C)C)cc1 (stereo not drawn) [Example 53, N-(1-{[(cyanoimino)(3-fluoroanilino)methyl]amino}-2,2-dimethylpropyl)-4-methylbenzamide] | 193 to 194
CC(C)(C)C(NC(=O)c1ccc(Cl)cc1)NC(=NC#N)NCc1cccc(Cl)c1 (stereo not drawn) [Example 78, 4-chloro-N-(1-{[[(3-chlorobenzyl)amino](cyanoimino)methyl]amino}-2,2-dimethylpropyl)benzamide] | 178 to 180
CCCC(Cl)(Cl)C(NC(=O)c1ccc(Cl)cc1)NC(=C[N+](=O)[O-])Nc1cccnc1 (stereo not drawn) [Example 151, 4-chloro-N-(2,2-dichloro-1-{[2-nitro-1-(3-pyridinylamino)ethenyl]amino}pentyl)benzamide] | 185 to 186
N#CN=C(Nc1cccnc1)NC(NC(=O)c1cccc(Cl)c1)C(F)(F)C(F)(F)F (stereo not drawn) [Example 122, 3-chloro-N-(1-{[(cyanoimino)(3-pyridinylamino)methyl]amino}-2,2,3,3,3-pentafluoropropyl)benzamide] | 183 to 185
CC(C)(C)CC(NC(=O)c1ccc(Cl)cc1)NC(=NS(=O)(=O)c1ccccc1)Nc1cccnc1 (stereo not drawn) [Example 140, 4-chloro-N-(3,3-dimethyl-1-{[[(phenylsulfonyl)imino](3-pyridinylamino)methyl]amino}butyl)benzamide] | 199 to 200
CC(C)(C)C(NC(=O)c1ccc(Cl)cc1)NC(=NC#N)NCc1ccccc1Cl (stereo not drawn) [Example 77, 4-chloro-N-(1-{[[(2-chlorobenzyl)amino](cyanoimino)methyl]amino}-2,2-dimethylpropyl)benzamide] | 180 to 182
CC(Cl)(Cl)C(NC(=O)c1cccc(Cl)c1)NC(=N[N+](=O)[O-])Nc1cccnc1 (stereo not drawn) [Example 138, 3-chloro-N-(2,2-dichloro-1-{[(nitroimino)(3-pyridinylamino)methyl]amino}propyl)benzamide] | 160 to 161
CC(C)(C)C(NC(=O)c1ccc(Cl)cc1)NC(=NC#N)Nc1cc(F)cc(F)c1 (stereo not drawn) [Example 72, 4-chloro-N-(1-{[(cyanoimino)(3,5-difluoroanilino)methyl]amino}-2,2-dimethylpropyl)benzamide] | 196 to 198

SMILES | melting point [°C]
CCCC(Cl)(Cl)C(NC(=O)c1ccc(Cl)cc1)NC(=N[N+](=O)[O-])Nc1cccnc1 (stereo not drawn) [Example 136, 4-chloro-N-(2,2-dichloro-1-{[(nitroimino)(3-pyridinylamino)methyl]amino}pentyl)benzamide] | 198 to 200
CC(Cl)(Cl)C(NC(=O)c1ccc(Cl)cc1)NC(=N[N+](=O)[O-])Nc1cccnc1 (stereo not drawn) [Example 137, 4-chloro-N-(2,2-dichloro-1-{[(nitroimino)(3-pyridinylamino)methyl]amino}propyl)benzamide] | 170 to 172
CC(C)(C)C(NC(=O)c1ccc(Cl)cc1)NC(=NC#N)NCc1ccc(Cl)cc1 (stereo not drawn) [Example 79, 4-chloro-N-(1-{[[(4-chlorobenzyl)amino](cyanoimino)methyl]amino}-2,2-dimethylpropyl)benzamide] | 173 to 175
CC(C)(C)C(NC(=O)c1ccc(Cl)cc1)NC(=NC#N)NCc1ccccn1 (stereo not drawn) [Example 82, 4-chloro-N-[1-({(cyanoimino)[(2-pyridinylmethyl)amino]methyl}amino)-2,2-dimethylpropyl]benzamide] | 184 to 185
Cc1ccc(C(=O)NC(NC(=NC#N)Nc2ccc(Cl)nc2)C(C)(C)C)cc1 (stereo not drawn) [Example 55, N-(1-{[[(6-chloro-3-pyridinyl)amino](cyanoimino)methyl]amino}-2,2-dimethylpropyl)-4-methylbenzamide] | 194 to 196
CC(C)(C)C(NC(=O)c1ccc(F)cc1)NC(=NC#N)Nc1cccnc1 (stereo not drawn) [Example 107, N-(1-{[(cyanoimino)(3-pyridinylamino)methyl]amino}-2,2-dimethylpropyl)-4-fluorobenzamide] | 195 to 196
CC(C)(C)C(NC(=O)c1ccc(Cl)cc1)NC(=NS(=O)(=O)c1ccccc1)Nc1cccnc1 (stereo not drawn) [Example 139, 4-chloro-N-(2,2-dimethyl-1-{[[(phenylsulfonyl)imino](3-pyridinylamino)methyl]amino}propyl)benzamide] | 196 to 197
CC(C)(C)C(NC(=O)c1ccc(Cl)cc1)NC(=NC#N)Nc1c(F)cccc1F (stereo not drawn) [Example 74, 4-chloro-N-(1-{[(cyanoimino)(2,6-difluoroanilino)methyl]amino}-2,2-dimethylpropyl)benzamide] | 211 to 213
N#CN=C(Nc1cccnc1)NC(NC(=O)c1ccc(I)cc1)C(Cl)(Cl)Cl (stereo not drawn) [Example 114, 4-iodo-N-(2,2,2-trichloro-1-{[(cyanoimino)(3-pyridinylamino)methyl]amino}ethyl)benzamide] | 208 to 210
CC(Cl)(Cl)C(NC(=O)c1ccc(C(F)(F)F)cc1)NC(=NS(=O)(=O)C(F)(F)F)Nc1cccnc1 (stereo not drawn) [Example 191, N-{2,2-dichloro-1-[((3-pyridinylamino){[(trifluoromethyl)sulfonyl]imino}methyl)amino]propyl}-4-(trifluoromethyl)benzamide] | 214 to 215
CC(Cl)(Cl)C(NC(=O)c1cccnc1)NC(=NC#N)Nc1ccc(Cl)nc1 (stereo not drawn) [Example 193, N-(2,2-dichloro-1-{[[(6-chloro-3-pyridinyl)amino](cyanoimino)methyl]amino}propyl)nicotinamide] | 212 to 213
CC(C)(C)C(NC(=O)c1ccc(Cl)cc1)NC(=NC#N)NCc1ccncc1 (stereo not drawn) [Example 81, 4-chloro-N-[1-({(cyanoimino)[(4-pyridinylmethyl)amino]methyl}amino)-2,2-dimethylpropyl]benzamide] | 189 to 191
COc1ncccc1NC(=NC#N)NC(NC(=O)c1cc(Cl)cc(Cl)c1)C(C)(Cl)Cl (stereo not drawn) [Example 164, 3,5-dichloro-N-[2,2-dichloro-1-({(cyanoimino)[(2-methoxy-3-pyridinyl)amino]methyl}amino)propyl]benzamide] | 149 to 150
CC(C)(C)C(NC(=O)c1ccc(Cl)cc1)NC(=NC#N)Nc1cccc(C(F)(F)F)c1 (stereo not drawn) [Example 71, 4-chloro-N-[1-({(cyanoimino)[3-(trifluoromethyl)anilino]methyl}amino)-2,2-dimethylpropyl]benzamide] | 184 to 186
N#CN=C(Nc1cccnc1)NC(NC(=O)c1ccc(Cl)cc1)C1CC1 (stereo not drawn) [Example 54, 4-chloro-N-[{[(cyanoimino)(3-pyridinylamino)methyl]amino}(cyclopropyl)methyl]benzamide] | 137 to 139
CCCC(Cl)(Cl)C(NC(=O)c1ccc(Cl)cc1)NC(=NC#N)Nc1cccnc1 (stereo not drawn) [Example 115, 4-chloro-N-(2,2-dichloro-1-{[(cyanoimino)(3-pyridinylamino)methyl]amino}pentyl)benzamide] | 192 to 193
N#CN=C(Nc1cccc(F)c1)NC(NC(=O)c1ccc(Cl)cc1)c1ccsc1 (stereo not drawn) [Example 56, 4-chloro-N-[{[(cyanoimino)(3-fluoroanilino)methyl]amino}(3-thienyl)methyl]benzamide] | 166 to 168

— patent US20020028836A1, “Potassium channel openers” (priority 2000, published 2002)
